Test results reported in patent US11613552B2, “Pharmaceutical agents, compositions, and methods relating thereto” (Alltech, Inc., priority 2017, dated 2023).
Entries after “also recorded” stand apart in the source; their conditions may differ.

Key:
HepG2 cells = experiment: Glucose production assay in HepG2 cells; assay type: cell-based, human; details: for reduction in glucose production compared with 100 nM insulin / CDE / reduction in glucose production: 48 hr; for reduction in glucose production: serum-free
Protocol: Equal numbers of Human HepG2 or rat H4IIE cells (1-1.5×10^5 cells/well) were seeded on 96 well plates in 10% FBS-containing media for 24 hr. Cells were then washed twice with PBS, and treated with various concentrations of compounds, metformin or insulin in 100 μl of glucose production media (glucose-free, phenol red-free DMEM media supplemented with 20 mM sodium lactate, 2 mM sodium pyruvate and 5 mM HEPES) at 37° C. for 24 hr (H4IIE cells only) or 48 hr (HepG2 cell only). Cells were also incubated with 0.24% DMSO (the maximal volume of DMSO solvent used in the experiments).
After the above treatments, 50 μl of culture media were collected, and subjected to glucose analysis using Molecular Probes Amplex Red glucose assay kit (Cat #A22189) according to the manufacturer's protocol. Cell numbers or viability in the culture plate after the above compound treatments were determined using Promega's CellTiter96® AQueous One Solution Cell Proliferation Assay kits, according to the manufacturer's protocol and instructions. In brief, after removing 50 μl of culture media for glucose assay, cells were incubated with AQueous One solution (25 μl stock solution and 50 μl prewarmed PBS/per well) at 37° C. for 1 hour, and the absorbance of OD490 nm in each sample was determined by the Bio-Tek microplate reader. Cell viability in culture wells were determined by the subtraction of OD490 nm in cultured cells with the OD490 nm in plain culture media (without seeding of cells). Glucose production in the culture cells were obtained by normalizing the glucose concentration in culture media by cell viability in each well. At least 3 samples per each treatment were examined for the above analysis. Data are presented as Mean±SEM of those samples. Experiments were repeated at least twice.
The half maximal inhibitory concentration (IC50 values) of Compound #43 or metformin for the inhibition of glucose production were determined using the ED50 Plus v1.0 online software.

G6pc = experiment: QRT-PCR of basal G6pc expression in AML-12 cells; assay type: cell-based, mouse
Protocol: For RNA analysis of basal G6pc expression (without the presence of diabetic stimuli: 8-CPT/Dex), amplified AML-12 and HepG2 cells were cultured on 24-well plates (0.5-2×10^5 cells/well) overnight in 10% FBS ITS- and Dex-free DMEM/F12 media and 10% FBS EMEM media, respectively. These cells were rinsed twice with PBS to remove residual sera. Then, the PBS-washed HepG2 cells were treated without or with insulin or Compound #43 in serum-free EMEM media for 40 hr. In some experiments, the PBS-washed AML-12 cells were incubated without or with Compound #43 or other selenium compounds in serum-free DMEM/F12 media for 24 hours. In other experiments, amplified AML-12 cells were pretreated without or with Compound #43 (150 or 300 ppb) in 10% FBS but ITS/Dex-free DMEM/F12 media for 24 hr. After 24 hr treatment, AML-12 cells were washed twice with PBS (to remove any residual serum in the culture) and then treated with insulin, Compound #43 or both, in the serum-free DMEM/Dex media for 6 hr.
Total RNA from saline- or selenium compound-treated Lepr^db/db mice was isolated using a Qiagen RNAeasy RNA isolation kit according to the Manufacturer's protocol. Total RNA from cultured cells was isolated using Trizol (Invitrogen) according to the manufacturer's protocol, and then incubated with DNase I to remove any potential contaminating genomic DNA. RNA samples were subjected to real-time PCR (QRT-PCR) analysis using Applied-Bioscience's RT kit and predesigned Taqman probes (Invitrogen), as described previously (Lan et al EMBO J 2003). Data were normalized by Actin B (Actb) mRNA levels in each sample, and are presented as mean±SEM of 3-5 samples.

AML-12 cells = experiment: Glucose uptake assay in AML-12 cells; assay type: cell-based, mouse
Protocol: Equal numbers of amplified AML-12 cells were seeded on 96 well plates (1.5×10^5/well) and cultured in 10% FBS but ITS/Dex-free DMEM/F12 media overnight. Then these cells were washed twice with PBS (to remove any potential residual sera), and serum-starved in plain DMEM/F12 media overnight. These serum-starved AML-12 cells were treated without (basal), with insulin (10 and 100 nM) or Compound #43 (150, 300 and 600 ppb) in glucose/phenol red-free DMEM media at 37° C. for 1.5 hr. After treatment, media was removed and cells were washed once with PBS and incubated with 1 mM 2-deoxyglucose (2DG) at room temperature for 30 min. The 2DG-treated cells were then subjected to glucose uptake measurement using Promega's Glucose Uptake-Glo Assay kit, according to the manufacturer's protocol. Luminescent signals were recorded using a Bio-Tek luminometer.

Compound | reduction in glucose production compared with 100 nM insulin / CDE (HepG2 cells; 3.8 μM) | reduction in glucose production compared with 100 nM insulin / CDE (HepG2 cells; 3.8 μM, listed as compound #43) | reduction in glucose production compared with 100 nM insulin / CDE (HepG2 cells; 7.6 μM or higher (7.6, 15.2 and 30.4 μM)) | relative potency among tested compounds in inhibiting glucose production (HepG2 cells; FIG. 1 left-hand panel) | IC50 (HepG2 cells; Homo sapiens, HepG2, 48 hr, read-out: IC50 (inhibition of glucose production)) | effect on glucose production in HepG2 cells (HepG2 cells; tested doses, serum-free glucose production media, 48 hr (FIG. 1)) | effect on G6pc expression (G6pc; 150 and 300 ppb, 24 hr pretreatment then 6 hr retreatment (FIG. 10C)) | decrease of G6pc expression vs Control (G6pc; 300 ppb selenium (3.8 μM of each compound), serum-free, 24 hr (FIG. 10A)) | decrease in G6pc mRNA levels vs either agent alone (G6pc; pretreatment then co-treatment with 10 nM insulin, 6 hr (FIG. 10C)) | effect on glucose uptake (AML-12 cells; 150, 300 and 600 ppb, 1.5 hr (FIG. 17)) | extent of increased glucose uptake (AML-12 cells; 600 ppb, 1.5 hr) | time to stimulate glucose uptake (AML-12 cells; serum-free) | reduction in glucose production (HepG2 cells; 10 nM insulin) | reduction in glucose production (HepG2 cells; 100 nM insulin) | decrease of G6pc mRNA levels vs Control (G6pc; 10 nM insulin, serum-free, 6 hr (FIG. 10C)) | effect on glucose uptake (AML-12 cells; 10 nM insulin, 1.5 hr) | effect on glucose uptake (AML-12 cells; 100 nM insulin, 1.5 hr)
C[Se]C[C@H]1O[C@@H](n2cnc3c(N)ncnc32)C(OC(C)=O)C1OC(C)=O (some centres unmarked) [Compound #43, Adenosine, 5′-Se-methyl-5′-selino-, 2′,3′-diacetate] | as potent as the CDE combination product | comparable to that achieved when insulin (100 nM) was used | much more potent than 100 nM insulin; also recorded: more potent than CDE | the most potent | 15.5 µM | decrease in glucose levels in the culture media; also recorded: inhibited glucose production | significant decrease of G6pc expression with the decrease levels comparable to 10 nM insulin | ~60% | more pronounced | significant increase of glucose uptake | comparable to 100 nM insulin | less than 1.5 hr |  |  |  |  | 
insulin: insulin purchased from Sigma, positive control |  |  |  |  |  |  |  |  |  |  |  |  | 20% | 30% | about 65% | did not enhance the glucose uptake | significant increase of glucose uptake
